This is an account of results in patent US20170071840A1, “POLYPHENOL/FLAVONOID COMPOSITIONS AND METHODS OF FORMULATING ORAL HYGIENIC PRODUCTS” (VIZURI HEALTH SCIENCES LLC, priority 2015, published 2017).

Data set [1] in a line: Solubilization in Listerine mouth rinse. The format is physicochemical. As for the experimental part: 100 Grams of the Listerine® Resveratrol Containing Mouth Rinse Formulation was Prepared as Follows: • 1. 98.4 grams of the Listerine® caramel colored mouth rinse was added to a 300 ml Pyrex glass beaker. The pH of the Listerine® caramel colored mouth rinse was initially determined via pH indicator strips to be decidedly acidic at approximately 4.5. • 2. 1.2 grams of Resveratrol powder was added to the solution of Step 1. • 3. About 0.2 grams of fine NaOH crystals were added to the mixture from Step 2 and thoroughly mixed. A uniformly caramel colored blend resulted with a measured pH of ˜10. […] The pH of the mixture from Step 3 was adjusted to a pH 6.5 by the addition of about 0.2 grams of citric acid crystals. A transparent solution resulted with a resveratrol concentration of 1.2 mg/ml.
• 1. 98.6 grams of the Listerine® caramel colored mouthrinse was added to a 300 ml Pyrex glass beaker. The pH of the Listerine® caramel colored mouthrinse was initially determined via pH indicator strips to be decidedly acidic at approximately 4.5. • 2. 1.2 grams of Luteolin powder was added to the solution of Step 1. • 3. About 0.2 grams of fine NaOH crystals were added to the mixture from Step 2 and thoroughly mixed. A uniformly caramel colored blend resulted with a measured pH of ˜10. […] The pH of the mixture from Step 2 was adjusted to a pH 8 by the addition of about 0.2 grams of citric acid crystals. […]

A short description of data set [2]: pH for stable aqueous microemulsion. The note with it: nonionic surfactants Polysorbate 80 and Cremophor/Kolliphor RH-40. The class given is physicochemical. An excerpt: In one embodiment, a flavonoid/polyphenol microemulsion can be made as follows: • The mixing of a flavonoid/polyphenol with an alkali metal component (e.g., alkali metal hydroxide(s) and/or alkaline metal salt(s)) to form an alkali metal flavonoid/polyphenol salt within an aqueous solution. • Adding a surfactant in the ratio from about 5 to 20 wt. % of the flavonoid/polyphenol to 95 to 80 wt. % of a surfactant; preferable a nonionic surfactant. • This mixture is thoroughly stirred to form a uniform clear solution. • Adjusting (e.g., acidifying) the alkali metal flavonoid/polyphenol salt with an agent (e.g., an acidic agent such as acetic acid and/or hydrochloric acid) to a pH level required to form a clear and stable microemulsion.
Stable microemulsions with apigenin and the nonionic surfactants, Polysorbate 80 and Cremophor/Kolliphor RH-40, were achieved provided a pH level of 8.0 to 8.5 was maintained. For luteolin, it as determined that a pH of 7 was required to maintain a stable aqueous microemulsion; and for resveratrol, a pH of >4.5 to 7.5.

Data set [3] can be described thus: Saliva levels of apigenin in chronic 1% apigenin toothpaste users (Example 12). The format is in vivo, human. As for the experimental part: Two subjects who have used PeroxiCare® with apigenin at a 1% concentration on a chronic basis provided saliva samples at:
Saliva was collected at each time point in 50 ml Falcon tubes and immediately transferred to a freezer. All samples were transported to Tufts University within 24 hours of collection. Apigenin in saliva was quantified using high performance liquid chromatograph (HPLC) with electrochemical detection (ECD). Apigenin in 1 ml saliva was extracted using 3 ml acetonitrile. After 2 min of rigorous vortexing, the mixture was spun at 2,000 rpm for 15 min at 4° C. Supernatant was dried under N2 gas, reconstituted with mobile phase A, and analyzed for apigenin with HPLC-ECD. The limit of quantification (LOQ) for apigenin and EGCG in this assay is 15 and 25 ng/ml saliva, respectively.

Data set [4] is described as follows: Heat solubilization in Kolliphor RH-40 / Polysorbate 80. The class given is physicochemical. The settings on record: curcumin as co-solubilizer.
Description: Heat Solubilization of 10% curcumin and 4% apigenin in Kolliphor RH-40 (formerly Cremophor)
Heat Solubilization of 10% Curcumin and 4% Apigenin in Polysorbate 80
Data set [5] in a line: Solubility in PS80 via the thermal processing method. The class given is physicochemical.
Protocol: Apigenin/Polysorbate 80 (PS80) formulations can be made as follows: • Apigenin powder and PS80 are mixed in the ratio from about 5 to 10 wt. % of apigenin to 95 to 90 wt. % PS80.
All solubility tests were conducted with 20 ml of PS80 contained within 80 ml Pyrex glass beakers.
The nature of a further data set: Solubility in water. The format is physicochemical. The settings on record: 20° C.

In the case of `Oc1ccc(C=Cc2cc(O)cc(O)c2)cc1` [resveratrol], in data set [1] (Listerine mouth rinse, pH 6.5), the “concentration in transparent solution” value amounted to 1200 µg/mL.
Turning to `O=c1cc(-c2ccc(O)c(O)c2)oc2cc(O)cc(O)c12` [luteolin, 3′,4′,5,7-tetrahydroxyflavone], in data set [2], the “pH level for stable microemulsion” value is 7. Also, in data set [1] (Listerine mouthrinse, pH 8), the “concentration in transparent solution” value was 1500 µg/mL.
`O=c1cc(-c2ccc(O)cc2)oc2cc(O)cc(O)c12` [Apigenin, 4′,5,7,-trihydroxyflavone]: the “persistence of apigenin levels in saliva post-brushing” value in data set [3] is recorded as “at least 8 hours”. Besides, in data set [4], the “apigenin solubilized in PS 80” value is “more than 5%” and the “apigenin solubilized in RH-40” value is recorded as “more than 5%”. Moreover, the “stable apigenin concentrate in PS80” value in data set [5] (5.0 wt. % apigenin in PS80, heated, cooled to ambient) worked out at 50 mg/mL.
With `O.Oc1cc(O)c2c(c1)O[C@H](c1ccc(O)c(O)c1)[C@@H](O)C2` [Catechin], in the data set “Solubility in water”, the “Water Solubility” value was roughly 5 mg/mL. Also, in data set [5] (20° C., thermal processing, not the maximum solubility levels), the “PS80 Solubility” value is 50 mg/mL.
